Source: PubChem BioAssay (NCI)
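A five-concentration, 48-hour dose response in 96-well plates underlies each endpoint, interpolated linearly between surrounding concentrations. Here, GI50 denotes the concentration required for 50% inhibition of growth. Definition used: TGI = concentration required for complete inhibition of growth.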 Where a SMILES comes first, the peptide text is derived from it. [ ]: non-standard residue; d: D form. The star is where a group is joined. X13 = OC[C@H](CC1CCCCC1)N*; dIva = CC[C@@](C)(N)C(=O)O; Aib = CC(C)(N)C(=O)O

Key:
Assay in all cases: NCI tumour cell line growth inhibition, 48 h
[1] = system: SN12C renal
[2] = system: SW-620 colon
[3] = system: EKVX NSCLC
[4] = system: HOP-92 NSCLC
[5] = system: T-47D breast
[6] = system: MDA-MB-435
[7] = system: SK-OV-3 ovarian
[8] = system: A498 renal
[9] = system: TK-10 renal
[10] = system: UO-31 renal
[11] = system: NCI-H226 lung
[12] = system: SNB-75 CNS
[13] = system: HCC-2998 colon
[14] = system: UACC-62 melanoma
[15] = system: SR leukemia
[16] = system: OVCAR-3 ovarian
[17] = system: RXF 393 renal
[18] = system: MDA-MB-231 breast
[19] = system: HT29 colon
[20] = system: MALME-3M melanoma
[21] = system: KM12 colon
[22] = system: NCI-H460 lung
[23] = system: LOX IMVI melanoma
[24] = system: NCI-H23 lung
[25] = system: NCI/ADR-RES ovarian
[26] = system: SK-MEL-5 melanoma

**Q.** With CC[C@@](C)(NC(=O)C(C)(C)NC(=O)[C@@H](NC(=O)[C@@H]1CCCN1C(=O)C(C)(C)NC(=O)[C@H](CC(C)C)NC(=O)CNC(=O)C(C)(C)NC(=O)[C@@H](NC(=O)C(C)(C)NC(=O)[C@H](CCC(N)=O)NC(=O)[C@H](C)NC(=O)C(C)(C)NC(=O)[C@H](C)NC(=O)C(C)(C)NC(=O)[C@H](C)NC(=O)C(C)(C)NC(C)=O)C(C)C)C(C)C)C(=O)N[C@@H](CCC(N)=O)C(=O)N[C@@H](CCC(N)=O)C(=O)N[C@H](CO)CC1CCCCC1 (Ac-[Aib]A[Aib]A[Aib]AQ[Aib]V[Aib]GL[Aib]PV[Aib][dIva]QQ-X13) as the molecule, how does the GI50 [1] read?
**A.** 460 nM

**Q.** And the TGI [1]?
**A.** > 5000 nM

**Q.** And the GI50 [2]?
**A.** 3650 nM

**Q.** And the TGI [2]?
**A.** > 5000 nM

**Q.** What about the GI50 [3] of the same molecule?
**A.** > 5000 nM

**Q.** What about the TGI [3] of the same molecule?
**A.** > 5000 nM

**Q.** And the GI50 [4]?
**A.** 854 nM

**Q.** And the TGI [4]?
**A.** 3380 nM

**Q.** And the GI50 [5]?
**A.** 1560 nM

**Q.** And the TGI [5]?
**A.** > 5000 nM

**Q.** What about the GI50 [6] of the same molecule?
**A.** 1550 nM

**Q.** And the TGI [6]?
**A.** > 5000 nM

**Q.** And the GI50 [7]?
**A.** 1890 nM

**Q.** What about the TGI [7] of the same molecule?
**A.** > 5000 nM

**Q.** And the GI50 [8]?
**A.** 1390 nM

**Q.** What about the TGI [8] of the same molecule?
**A.** > 5000 nM

**Q.** What about the GI50 [9] of the same molecule?
**A.** > 5000 nM

**Q.** And the TGI [9]?
**A.** > 5000 nM

**Q.** What about the GI50 [10] of the same molecule?
**A.** > 5000 nM

**Q.** What about the TGI [10] of the same molecule?
**A.** > 5000 nM

**Q.** What about the GI50 [11] of the same molecule?
**A.** > 5000 nM

**Q.** What about the TGI [11] of the same molecule?
**A.** > 5000 nM

**Q.** And the GI50 [12]?
**A.** 1240 nM

**Q.** What about the TGI [12] of the same molecule?
**A.** > 5000 nM

**Q.** What about the GI50 [13] of the same molecule?
**A.** 2040 nM

**Q.** And the TGI [13]?
**A.** > 5000 nM

**Q.** And the GI50 [14]?
**A.** 1860 nM

**Q.** And the TGI [14]?
**A.** > 5000 nM

**Q.** And the GI50 [15]?
**A.** 2010 nM

**Q.** What about the TGI [15] of the same molecule?
**A.** > 5000 nM

**Q.** What about the GI50 [16] of the same molecule?
**A.** 1250 nM

**Q.** What about the TGI [16] of the same molecule?
**A.** > 5000 nM

**Q.** What about the GI50 [17] of the same molecule?
**A.** 1750 nM

**Q.** What about the TGI [17] of the same molecule?
**A.** > 5000 nM

**Q.** What about the GI50 [18] of the same molecule?
**A.** 1530 nM

**Q.** And the TGI [18]?
**A.** > 5000 nM

**Q.** And the GI50 [19]?
**A.** 2250 nM

**Q.** What about the TGI [19] of the same molecule?
**A.** > 5000 nM

**Q.** And the GI50 [20]?
**A.** 1180 nM

**Q.** And the TGI [20]?
**A.** 3980 nM

**Q.** What about the GI50 [21] of the same molecule?
**A.** 1890 nM

**Q.** What about the TGI [21] of the same molecule?
**A.** > 5000 nM

**Q.** What about the GI50 [22] of the same molecule?
**A.** 1600 nM

**Q.** And the TGI [22]?
**A.** > 5000 nM

**Q.** What about the GI50 [23] of the same molecule?
**A.** 1490 nM

**Q.** What about the TGI [23] of the same molecule?
**A.** > 5000 nM

**Q.** What about the GI50 [24] of the same molecule?
**A.** 1060 nM

**Q.** What about the TGI [24] of the same molecule?
**A.** > 5000 nM

**Q.** And the GI50 [25]?
**A.** > 5000 nM

**Q.** What about the TGI [25] of the same molecule?
**A.** > 5000 nM

**Q.** And the GI50 [26]?
**A.** 1310 nM

**Q.** And the TGI [26]?
**A.** 4840 nM
